# Assay results taken from patent US6495598B1, “Perfusate preparation for ophthalmic operation” (Ophtecs Corporation, priority 2001, dated 2002).
# Entries after “also recorded” stand apart in the source; their conditions may differ. Where two headings read alike, the source gives them in different places.
# Experiments:
# [1] = test system: incubated bovine corneal endothelial cell; test: cell-activating effect, MTT assay-based method; settings: for cell-activating effect (absorbance at 450 nm): 5 and 20 mM, 48 hrs incubation, vs control containing no HBA
# Procedure: The D-form, D,L-form and L-form of D-3-HBA were dissolved in the DULBECCO's MEM salt incubation media at concentrations of 0 (control), 5 and 20 mM, respectively, and the resulting solutions were injected into a 24-well collagen-coated plate implanted (4×10^4 cell/ml) with a pre-incubated bovine corneal endothelial cell and then incubated for 48 hrs. After the incubation, 50 μl of cell-counting kit (product of DOJIN KAGAKU Ltd.) was added to each well to develop colors, and absorbance at 450 nm was measured by using each supernatant.
# corneas of Dutch rabbits = settings: 90 minutes irrigation
# Procedure: Irrigating solution No.1 (Example) and solutions No.3, No.4 and No.5 (Comparative Examples) for testing were prepared by dissolving the predetermined amounts of the components listed in Table 2 and, finally, D-3-HBA so as to adjust the total amounts of the aqueous solutions to be 1 liter; adjusting the pHs of the solutions by diluted hydrochloric acid, and subjecting the solutions to aseptic treatment.
# Dutch rabbits (male and female weighing 1.9 to 2.9 kg) were used for an experiment. Experiments were performed in rabbit, anesthetized with intramuscular xylazine hydrochloride (“celactal®”, a product Bayer AG.,) and ketamine hydrochloride (“ketalar®”, a product of Sankyo Co. Ltd,.) through intramuscular injection, a 3.2-mm-wide incision was made corneas limbusing a scalpel for ocular surgery. Subsequently, 18-gauge injection needles having a rounded tip were inserted in the anterior chambers through the incisions, and the irrigating solutions were allowed to irrigate at a flow rate of 10 ml/min for 90 minutes. After the irrigation, the incisions were sewed up once by a sewing needle with a suture. The corneal thicknesses were measured by the ultrasonic pachymeter used in Example 4 before and during the perfusion (at intervals of 30 minutes).
# [2] = test system: cultured bovine corneal endothelial cells damaged by ultrasound
# Procedure: As an invasive model assuming a phacoemulsification and aspiration method used as a surgical method of cataract, incubated bovine corneal endothelial cells damaged by ultrasound were subjected to an experiment for examining the recovery of their barrier function.
# Using the incubated bovine corneal endothelial cells damaged by ultrasound, the barrier function-recovering effects of D-3-HBA and oxyglutathione were subjected to an experiment in accordance with the following procedure.
# The monolayer of cultured bovine corneal endothelial cells on a filter, which had been damaged by sonication to the cells at 92 W/cm^2 three course at intervals of 0.1 sec, was incubated in DULBECCO's MEM medium (with 10% of embryonic bovine serum) containing 20 mM of D-3-HBA or 0.3 mM of oxyglutathione.
Compound,cell-activating effect (absorbance at 450 nm) [1],cell-activating effect (absorbance at 450 nm) ([1]; listed as D-form),"optimum concentration for cell-activating effect ([1]; tested at 5 and 20 mM, 48 hrs) [mM]",effect of keeping the change in the corneal thickness small (corneas of Dutch rabbits; bicarbonate ions added to the irrigating solution (FIG. 5)),effect of keeping the change in the corneal thickness small (corneas of Dutch rabbits; bicarbonate ions not added to the irrigating solution (FIG. 6)),recovery of the barrier function ([2]; 20 mM in MEM medium after sonication damage),"electrical resistance value of the endothelial layer ([2]; 20 mM in MEM medium, vs MEM with 0.3 mM oxyglutathione and MEM alone)"
"CC(O)CC(=O)O (racemic) [D,L-form, reference compound]",did not show a significant difference,,,,,,
"C[C@H](O)CC(=O)O [L-form, reference compound]",hardly obtained; also recorded: did not show a significant difference in activity at any concentrations,,,,,,
"C[C@@H](O)CC(=O)[O-].[Na+] [Solution D-3-HBA, sodium D-3-hydroxy butyrate]",the most active at any concentrations,activity is obtained,20,significant,not significant,quick recovery effect,closer to the value before the irradiation of ultrasound at any observation time
